# From patent US5763235A (priority 1994, dated 1998)
# Like-named read-outs stand apart in the source and are kept apart here.
# Legend:
# [1] = biological target: ALA dehydratase of Rhodobacter sphaeroides CR-450; assay: ALA dehydratase reaction with crude enzyme of CR-450 (Comparative Example 2); type: biochemical; conditions: inhibitor constant of levulinic acid, Dixon plot, 37° C., 60 minutes, unit not given (concentrations in method in mM)
# [2] = biological target: ALA dehydratase variant of strain CR-514; assay: ALA dehydratase reaction with crude enzyme of strain CR-514; type: biochemical, Rhodobacter sphaeroides CR-514; conditions: enzyme of CR-514, unit not given (concentrations in method in mM)
# [3] = tested on: Rhodobacter sphaeroides CR-450; conditions: glycine 30 mM, 30° C., dark
# Procedure: (§1) A 500 ml portion of medium 1 was prepared in a 2 l capacity shaking flask. This was sterilized at 121° C. for 15 minutes and then spontaneously cooled.
# (§2) Separately from this, each of the mutant strains CR-514, CR-520 and CR-533 obtained in Example 3 was inoculated into a 21 mm.phi. test tube containing 10 ml of medium 1 which was sterilized in the same manner as described in the foregoing and cultured in the dark at 30° C. for 48 hours on a shaker.
# (§3) The entire portion of each culture broth was inoculated into the aforementioned shaking flask and cultured in the dark at 30° C. for 48 hours on a shaker, and the resulting cells were collected by centrifugation.
# (§4) The thus collected cells were suspended in 150 ml of sterilized medium 1, to a wet cell density of about 0.3 g/10 ml, and the cell suspension was mixed with 30 mM of glycine and dispensed in 10 ml portions into 21 mm.phi. test tubes. After adding varied concentration of levulinic acid, shaking culture was carried out at 30° C. in the dark.
# (§5) (Clinical Chemistry, 36(8): 1494 (1990)).
# The process of Example 4 was conducted, except that Rhodobacter sphaeroides CR-450 was used and the amount of levulinic acid was changed as shown in Table 3.
# strain CR-533 = conditions: glycine 30 mM, 30° C., dark
# Procedure: as §1, §2, §3, §4, §5
# strain CR-520 = conditions: glycine 30 mM, 30° C., dark
# Procedure: as §1, §2, §3, §4, §5
# [4] = tested on: Rhodobacter sphaeroides IFO 12203; conditions: glycine 30 mM, 30° C., dark
# Procedure: as §1, §2, §3, §4, §5
# strain CR-514 = conditions: glycine 30 mM, 30° C., dark
# Procedure: as §1, §2, §3, §4, §5
# [5] = biological target: ALA dehydratase variant of strain CR-520; assay: ALA dehydratase reaction with crude enzyme of strain CR-520; type: biochemical, Rhodobacter sphaeroides CR-520; conditions: inhibitor constant of levulinic acid, Dixon plot; enzyme of CR-520; 37° C., 60 minutes; unit not given (concentrations in method in mM)
# [6] = biological target: ALA dehydratase of strain CR-533; conditions: inhibitor constant of levulinic acid, Dixon plot; enzyme of CR-533; 37° C., 60 minutes; unit not given (concentrations in method in mM)
smiles,measurement,setting,value
CC(=O)CCC(=O)O [levulinic acid],Ki,[1],0.37 mM
same,Ki,"[2]; inhibitor constant of levulinic acid, Dixon plot, 37° C., 60 minutes",0.21 mM
same,Amount of ALA formed after 15 hours,[3]; levulinic acid 5 mM,1.5 mM
same,Amount of ALA formed after 30 hours,[3]; levulinic acid 5 mM,1.5 mM
same,Amount of ALA formed after 15 hours,[3]; levulinic acid 15 mM,2.5 mM
same,Amount of ALA formed after 30 hours,[3]; levulinic acid 15 mM,3.8 mM
same,Amount of ALA formed after 15 hours,[3]; levulinic acid 30 mM,2.0 mM
same,Amount of ALA formed after 30 hours,[3]; levulinic acid 30 mM,2.5 mM
same,Amount of ALA formed after 15 hours,strain CR-533; levulinic acid 5 mM,1.7 mM
same,Amount of ALA formed after 30 hours,strain CR-533; levulinic acid 5 mM,2.4 mM
same,Amount of ALA formed after 15 hours,strain CR-533; levulinic acid 15 mM,2.4 mM
same,Amount of ALA formed after 30 hours,strain CR-533; levulinic acid 15 mM,3.9 mM
same,Amount of ALA formed after 15 hours,strain CR-533; levulinic acid 30 mM,2.2 mM
same,Amount of ALA formed after 30 hours,strain CR-533; levulinic acid 30 mM,3.3 mM
same,Amount of ALA formed after 15 hours,strain CR-520; levulinic acid 0.5 mM,2.0 mM
same,Amount of ALA formed after 30 hours,strain CR-520; levulinic acid 0.5 mM,2.8 mM
same,Amount of ALA formed after 15 hours,strain CR-520; levulinic acid 1 mM,2.5 mM
same,Amount of ALA formed after 30 hours,strain CR-520; levulinic acid 1 mM,4.5 mM
same,Amount of ALA formed after 15 hours,strain CR-520; levulinic acid 5 mM,3.0 mM
same,Amount of ALA formed after 30 hours,strain CR-520; levulinic acid 5 mM,6.5 mM
same,Amount of ALA formed after 15 hours,[4]; levulinic acid 5 mM,0.01 mM
same,Amount of ALA formed after 30 hours,[4]; levulinic acid 5 mM,0 mM
same,Amount of ALA formed after 15 hours,[4]; levulinic acid 15 mM,0.1 mM
same,Amount of ALA formed after 30 hours,[4]; levulinic acid 15 mM,0 mM
same,Amount of ALA formed after 15 hours,strain CR-514; levulinic acid 1 mM,1.5 mM
same,Amount of ALA formed after 30 hours,strain CR-514; levulinic acid 1 mM,1.5 mM
same,Amount of ALA formed after 15 hours,strain CR-514; levulinic acid 5 mM,2.0 mM
same,Amount of ALA formed after 30 hours,strain CR-514; levulinic acid 5 mM,3.0 mM
same,Amount of ALA formed after 15 hours,strain CR-514; levulinic acid 10 mM,2.2 mM
same,Amount of ALA formed after 30 hours,strain CR-514; levulinic acid 10 mM,4.1 mM
same,Ki,[5],0.07 mM
same,Ki,[6],0.36 mM
"NCC(=O)CCC(=O)O [ALA, 5-aminolevulinic acid]",Km,"[2]; Michaelis constant for ALA, Lineweaver-Burk",0.76 mM
